Measured values reported in ChEMBL document CHEMBL6103585, “Construction and activity evaluation of novel CHS inhibitors against fungal infections” (Eur J Med Chem, 2025).
≈ marks a conversion by molar mass, not a printed value. Calls of active or inactive are those of the source. The calls are words filed in the database; no cut-off is given here.

Columns and labels:
[1] = Toxicity in mouse infected with Candida albicans 901 assessed as change in CRE level in presence of BPE (reference value: 21.5 +/-1.7 umol/L); conditions: in vivo
Cryptococcus neoformans = assay: Antifungal activity against Cryptococcus neoformans ZKCC 2209 assessed as fungal growth inhibition incubated for 72 hrs by broth microdilution method; assay type: functional
Candida albicans [2] = assay: In vivo antifungal activity against Candida albicans 901 infected in mouse model assessed as decrease in PD-L1 protein expression level at 5 microg/g, iv pre-infected with fungi by intravenous injection followed by compound administration and measured on day 8 by Western blotting analysis; assay type: functional, organism-based; conditions: dose 5.0 µg/g, time 8.0 day
Candida albicans [3] = assay: In vivo antifungal activity against Candida albicans 901 infected in mouse model assessed as increase in CD4positive expression level in presence of BPE; assay type: functional, organism-based
Candida albicans [4] = assay: In vivo antifungal activity against Candida albicans 901 infected in mouse model assessed as decrease in PD-L1 protein expression level at 5 microg/g, iv pre-infected with fungi by intravenous injection followed by compound administration and measured on day 8 in presence of 1-MT by Western blotting analysis; assay type: functional, organism-based; conditions: dose 5.0 µg/g, time 8.0 day
Candida albicans [5] = assay: Induction of apoptosis in Candida albicans ATCC SC5314 assessed as late apoptotic cells by V-FITC/PI staining based flow cytometric analysis (reference value: 0.40%); assay type: functional
[6] = Toxicity in mouse infected with Candida albicans 901 assessed as change in AST level in presence of 1-MT (reference value: 76.1 +/-4.2 IU/L); conditions: in vivo
Candida albicans [7] = assay: Antifungal activity against fluconazole-resistant Candida albicans 904 assessed as reduction in fungal growth incubated for 72 hrs by broth microdilution method; assay type: functional
Candida albicans [8] = assay: In vivo antifungal activity against Candida albicans 901 infected in mouse model assessed as decrease in PD-L1 protein expression level at 5 microg/g, iv pre-infected with fungi by intravenous injection followed by compound administration and measured on day 8 in presence of BPE by Western blotting analysis; assay type: functional, organism-based; conditions: dose 5.0 µg/g, time 8.0 day
Candida albicans [9] = assay: Fungicidal activity against Candida albicans ATCC SC5314 assessed as dead cells (reference value: 8%); assay type: functional
Candida albicans [10] = assay: In vivo antifungal activity against Candida albicans 901 infected in mouse model assessed as recovery of alveolar structures to normal state in lung at 5 microg/g, iv pre-infected with fungi by intravenous injection followed by compound administration and measured on day 8 in presence of 1-MT by H and E staining based analysis; assay type: functional, organism-based; conditions: dose 5.0 µg/g, time 8.0 day
[11] = Toxicity in mouse infected with Candida albicans 901 assessed as change in BUN level (reference value: 11.4 +/-1.5 mmol/L); conditions: in vivo
Candida albicans [12] = assay: Induction of ROS generation in Candida albicans ATCC SC5314 assessed as increase in fluorescence intensity incubated for 12 hrs by fluorescence microscopic analysis; assay type: functional, organism-based
[13] = Toxicity in mouse infected with Candida albicans 901 assessed as change in AST level in presence of BPE (reference value: 76.1 +/-4.2 IU/L); conditions: in vivo
Candida albicans [14] = assay: Antifungal activity against fluconazole-resistant Candida albicans 17# assessed as reduction in fungal growth incubated for 72 hrs by broth microdilution method; assay type: functional
[15] = Toxicity in mouse infected with Candida albicans 901 assessed as change in ALT level (reference value: 42.8 +/-3.9 IU/L); conditions: in vivo
Candida tropicalis = assay: Antifungal activity against Candida tropicalis ATCC 1369 assessed as fungal growth inhibition incubated for 72 hrs by broth microdilution method; assay type: functional
HeLa = assay: Cytotoxicity against human HeLa cells incubated for 24 hrs by CCK8 assay; assay type: functional, cell-based
Candida albicans [16] = assay: In vivo antifungal activity against Candida albicans 901 infected in mouse model assessed as reduction in genetic material content in lung at 5 microg/g, iv pre-infected with fungi by intravenous injection followed by compound administration and measured on day 8 in presence of 1-MT by H and E staining based analysis; assay type: functional, organism-based; conditions: dose 5.0 µg/g, time 8.0 day
[17] = Toxicity in mouse infected with Candida albicans 901 assessed as change in ALT level in presence of BPE (reference value: 42.8 +/-3.9 IU/L); conditions: in vivo
Candida albicans [18] = assay: In vivo antifungal activity against Candida albicans 901 infected in mouse model assessed as decrease in IFN-gamma protein expression level at 5 microg/g, iv pre-infected with fungi by intravenous injection followed by compound administration and measured on day 8 by Western blotting analysis; assay type: functional, organism-based; conditions: dose 5.0 µg/g, time 8.0 day
Candida albicans [19] = assay: In vivo antifungal activity against Candida albicans 901 infected in mouse model assessed as expansion of alveolar spaces in lung at 5 microg/g, iv pre-infected with fungi by intravenous injection followed by compound administration and measured on day 8 by H and E staining based analysis; assay type: functional, organism-based; conditions: dose 5.0 µg/g, time 8.0 day
[20] = Inhibition of chitin synthase extracted from Candida tropicalis ATCC 1369 using UDP-GlcNAc as substrate incubated for 1 hrs
Candida albicans [21] = assay: Fungicidal activity against Candida albicans ATCC SC5314 assessed as live cells (reference value: 92%); assay type: functional
Candida albicans [22] = assay: In vivo antifungal activity against Candida albicans 901 infected in mouse model assessed as reduction in genetic material content in lung at 5 microg/g, iv pre-infected with fungi by intravenous injection followed by compound administration and measured on day 8 in presence of BPE by H and E staining based analysis; assay type: functional, organism-based; conditions: dose 5.0 µg/g, time 8.0 day
Candida albicans [23] = assay: Antifungal activity against Candida albicans ATCC SC5314 assessed as fungal growth inhibition incubated for 72 hrs by broth microdilution method; assay type: functional
Candida albicans [24] = assay: In vivo antifungal activity against Candida albicans 901 infected in mouse model assessed as decrease in IDO protein expression level at 5 microg/g, iv pre-infected with fungi by intravenous injection followed by compound administration and measured on day 8 in presence of BPE by Western blotting analysis; assay type: functional, organism-based; conditions: dose 5.0 µg/g, time 8.0 day
[25] = Toxicity in mouse infected with Candida albicans 901 assessed as change in BUN level in presence of BPE (reference value: 11.4 +/-1.5 mmol/L); conditions: in vivo
[26] = Binding affinity to chitin synthase (unknown origin) assessed as dissociation constant by SPR analysis
Candida albicans [27] = assay: In vivo antifungal activity against Candida albicans 901 infected in mouse model assessed as body weight gain at 5 microg/g, iv pre-infected with fungi by intravenous injection followed by compound administration and measured on day 8 in presence of BPE; assay type: functional, organism-based; conditions: dose 5.0 µg/g, time 8.0 day
Candida albicans [28] = assay: In vivo antifungal activity against Candida albicans 901 infected in mouse model assessed as body weight gain at 5 microg/g, iv pre-infected with fungi by intravenous injection followed by compound administration and measured on day 8 in presence of 1-MT; assay type: functional, organism-based; conditions: dose 5.0 µg/g, time 8.0 day
Candida albicans [29] = assay: In vivo antifungal activity against Candida albicans 901 infected in mouse model assessed as decrease in IL-2 protein expression level at 5 microg/g, iv pre-infected with fungi by intravenous injection followed by compound administration and measured on day 8 by Western blotting analysis; assay type: functional, organism-based; conditions: dose 5.0 µg/g, time 8.0 day
Candida albicans [30] = assay: In vivo antifungal activity against Candida albicans 901 infected in mouse model assessed as decrease in IFN-gamma protein expression level at 5 microg/g, iv pre-infected with fungi by intravenous injection followed by compound administration and measured on day 8 in presence of 1-MT by Western blotting analysis; assay type: functional, organism-based; conditions: dose 5.0 µg/g, time 8.0 day
Candida albicans [31] = assay: Induction of apoptosis in Candida albicans ATCC SC5314 assessed as necrotic cells by V-FITC/PI staining based flow cytometric analysis (reference value: 2.74%); assay type: functional

O=C(CNC(=O)c1nc2ccc(Cl)cc2c(=O)[nH]1)NCC(=O)c1ccccc1
Activity [1]: 16.3 µmol/L
MIC50 (Cryptococcus neoformans): 1 mg/L (≈ 2.51 µM)
Activity (Candida albicans [2]): Active
Activity (Candida albicans [3]): Active
Activity (Candida albicans [4]): Active
Activity (Candida albicans [5]): 12.1%
Activity [6]: 74.6 IU/L
MIC50 (Candida albicans [7]): 4 mg/L (≈ 10 µM)
Activity (Candida albicans [8]): Active
Activity (Candida albicans [9]): 97%
Activity (Candida albicans [10]): Active
Activity [11]: 8.2 mmol/L
Activity (Candida albicans [12]): Active
Activity [13]: 70.4 IU/L
MIC50 (Candida albicans [14]): 4 mg/L (≈ 10 µM)
Activity [15]: 33.6 IU/L
MIC50 (Candida tropicalis): 0.5 mg/L (≈ 1.25 µM)
IC50 (HeLa): > 50 µM
Activity (Candida albicans [16]): Active
Activity [17]: 43.6 IU/L
Activity (Candida albicans [18]): Active
Activity (Candida albicans [19]): Active
IC50 [20]: 14.7 µM
Activity (Candida albicans [21]): 3%
Activity (Candida albicans [22]): Active
MIC50 (Candida albicans [23]): 1 mg/L (≈ 2.51 µM)
Activity (Candida albicans [24]): Active
Activity [25]: 9.5 mmol/L
Kd [26]: 0.00752 µM
Activity (Candida albicans [27]): Active
Activity (Candida albicans [28]): Active
Activity (Candida albicans [29]): Active
Activity (Candida albicans [30]): Active
Activity (Candida albicans [31]): 15.9%
